Measured values from ChEMBL document CHEMBL1147867, “Identification of antitumour activity of novel derivatives of 8-aryl-2,6,7,8-tetrahydroimidazo[2,1-c][1,2,4]triazine-3,4-dione and 8-aryl-4-imino-2,3,7,8-tetrahydroimidazo[2,1-c][1,2,4]triazin-3(6H)-one” (Bioorg Med Chem, 2007).
≈ marks a conversion by molar mass, not a printed value. Blank lines part the entries; values can stand above or below the compound they belong to.

Tests used:
[1] = Cytotoxicity against Vero cells at 10 ug/ml after 72 hrs; type: cell-based; conditions: chlorocebus sabaeus, read-out: Inhibition
[2] = Cytotoxicity against Vero cells at 50 ug/ml after 72 hrs; type: cell-based; conditions: chlorocebus sabaeus, read-out: Inhibition
[3] = Cytotoxicity against human LS180 cells at 10 ug/ml after 72 hrs; type: functional; conditions: LS180, 72 h
[4] = Cytotoxicity against human LS180 cells at 50 ug/ml after 72 hrs; type: functional; conditions: LS180, 72 h
[5] = test system: HeLa; experiment: Cytotoxicity against human HeLa cells at 10 ug/ml after 72 hrs; type: functional
[6] = test system: HeLa; experiment: Cytotoxicity against human HeLa cells at 50 ug/ml after 72 hrs; type: functional
[7] = test system: T47D; experiment: Cytotoxicity against human T47D cells at 10 ug/ml after 72 hrs; type: functional
[8] = test system: T47D; experiment: Cytotoxicity against human T47D cells at 50 ug/ml after 72 hrs; type: functional
[9] = Cell viability in HSF cells at 1 uM after 24 hrs by MTT assay; type: cell-based, Fibroblast; conditions: human, read-out: Activity
[10] = Cell viability in HSF cells at 50 uM after 24 hrs by MTT assay; type: cell-based, Fibroblast; conditions: human, read-out: Activity
[11] = Cell viability in HSF cells at 100 uM after 24 hrs by MTT assay; type: functional, Homo sapiens, Fibroblast
[12] = test system: RPMI-8226; experiment: Cell viability in human RPMI 8226 ECACC 87012702 cancer cells at 1 uM after 24 hrs by MTT assay; type: functional
[13] = test system: A549; experiment: Anticancer activity against human A549 cells at 10 ug/ml after 72 hrs; type: functional; conditions: A549, 72 h
[14] = test system: A549; experiment: Anticancer activity against human A549 cells at 50 ug/ml after 72 hrs; type: functional; conditions: A549, 72 h
[15] = Acute toxicity in mouse; type: organism-based; conditions: in vivo
[16] = test system: RPMI-8226; experiment: Cell viability in human RPMI 8226 ECACC 87012702 cancer cells at 50 uM after 24 hrs by MTT assay; type: functional
[17] = test system: RPMI-8226; experiment: Cell viability in human RPMI 8226 ECACC 87012702 cancer cells at 100 uM after 24 hrs by MTT assay; type: functional
[18] = test system: Staphylococcus aureus; experiment: Antibacterial activity against Staphylococcus aureus after 24 hrs by microdilution broth method; type: functional
[19] = test system: Staphylococcus epidermidis; experiment: Antibacterial activity against Staphylococcus epidermidis after 24 hrs by microdilution broth method; type: functional
[20] = test system: Streptococcus pyogenes; experiment: Antibacterial activity against Streptococcus pyogenes after 24 hrs by microdilution broth method; type: functional
[21] = test system: Escherichia coli; experiment: Antibacterial activity against Escherichia coli after 24 hrs by microdilution broth method; type: functional

Structure (SMILES): Cc1ccc(N2CCN/C2=N\N)cc1
cytotoxicity at 72 h, 10 ug/ml [1]: 0%
cytotoxicity at 72 h, 50 ug/ml [2]: 9%
inhibition at 10 µg/mL [3]: 11%
inhibition at 50 µg/mL [4]: 15%
inhibition at 10 µg/mL [5]: 3%
inhibition at 50 µg/mL [6]: 0%
inhibition at 10 µg/mL [7]: 12%
inhibition at 50 µg/mL [8]: 17%

Structure (SMILES): O=c1[nH]nc2n(c1=O)CCN2c1cccc(Cl)c1
viability at 24 h, 1 µM [9]: 95%
viability at 24 h, 50 µM [10]: 91%
Activity [11]: 91%
Activity [12]: 89%
cytotoxicity at 72 h, 10 ug/ml [1]: 11%
cytotoxicity at 72 h, 50 ug/ml [2]: 24%
inhibition at 10 µg/mL [3]: 0%
inhibition at 50 µg/mL [4]: 0%
inhibition at 10 µg/mL [5]: 27%
inhibition at 50 µg/mL [6]: 38%
inhibition at 10 µg/mL [7]: 0%
inhibition at 50 µg/mL [8]: 0%
inhibition at 10 µg/mL [13]: 0%
inhibition at 50 µg/mL [14]: 0%
LD50 [15]: > 2000 mg/kg
Activity [16]: 68%
Activity [17]: 62%

MIC [18]: 29.9 µM (≈ 6.17 µg/mL)
MIC [19]: 18.7 µM (≈ 3.86 µg/mL)
MIC [20]: 59.8 µM (≈ 12.3 µg/mL)
MIC [21]: 15 µM (≈ 3.09 µg/mL)
Structure (SMILES): COc1ccc(N2CCN/C2=N\N)cc1
cytotoxicity at 72 h, 10 ug/ml [1]: 0%
cytotoxicity at 72 h, 50 ug/ml [2]: 0%
inhibition at 10 µg/mL [3]: 4%
inhibition at 50 µg/mL [4]: 9%
inhibition at 10 µg/mL [5]: 0%
inhibition at 50 µg/mL [6]: 0%
inhibition at 10 µg/mL [7]: 17%
inhibition at 50 µg/mL [8]: 23%

Structure (SMILES): N=c1c(=O)[nH]nc2n1CCN2c1ccccc1
viability at 24 h, 1 µM [9]: 101%
viability at 24 h, 50 µM [10]: 103%
Activity [11]: 106%
Activity [12]: 95%
cytotoxicity at 72 h, 10 ug/ml [1]: 26%
cytotoxicity at 72 h, 50 ug/ml [2]: 30%
inhibition at 10 µg/mL [3]: 0%
inhibition at 50 µg/mL [4]: 1%
inhibition at 10 µg/mL [5]: 30%
inhibition at 50 µg/mL [6]: 34%
inhibition at 10 µg/mL [7]: 0%
inhibition at 50 µg/mL [8]: 3%
inhibition at 10 µg/mL [13]: 7%
inhibition at 50 µg/mL [14]: 38%
Activity [16]: 103%
Activity [17]: 106%

Structure (SMILES): N=c1c(=O)[nH]nc2n1CCN2c1ccc(Cl)cc1
viability at 24 h, 1 µM [9]: 98%
viability at 24 h, 50 µM [10]: 84%
Activity [11]: 74%
Activity [12]: 94%
cytotoxicity at 72 h, 10 ug/ml [1]: 0%
cytotoxicity at 72 h, 50 ug/ml [2]: 0%
inhibition at 10 µg/mL [3]: 0%
inhibition at 50 µg/mL [4]: 5%
inhibition at 10 µg/mL [5]: 8%
inhibition at 50 µg/mL [6]: 0%
inhibition at 10 µg/mL [7]: 16%
inhibition at 50 µg/mL [8]: 27%
inhibition at 10 µg/mL [13]: 25%
inhibition at 50 µg/mL [14]: 27%
Activity [16]: 76%
Activity [17]: 64%

MIC [18]: 29.5 µM (≈ 6.21 µg/mL)
MIC [19]: 18.4 µM (≈ 3.88 µg/mL)
MIC [20]: 59.1 µM (≈ 12.5 µg/mL)
MIC [21]: 36.9 µM (≈ 7.77 µg/mL)
Structure (SMILES): N/N=C1\NCCN1c1ccc(Cl)cc1

Structure (SMILES): N/N=C1\NCCN1c1cccc(Cl)c1
cytotoxicity at 72 h, 10 ug/ml [1]: 0%
cytotoxicity at 72 h, 50 ug/ml [2]: 10%
inhibition at 10 µg/mL [3]: 8%
inhibition at 50 µg/mL [4]: 0%
inhibition at 10 µg/mL [5]: 0%
inhibition at 50 µg/mL [6]: 0%
inhibition at 10 µg/mL [7]: 5%
inhibition at 50 µg/mL [8]: 0%

Structure (SMILES): Cc1ccc(N2CCn3c2n[nH]c(=O)c3=O)cc1
viability at 24 h, 1 µM [9]: 93%
viability at 24 h, 50 µM [10]: 97%
Activity [11]: 92%
Activity [12]: 95%
cytotoxicity at 72 h, 10 ug/ml [1]: 0%
cytotoxicity at 72 h, 50 ug/ml [2]: 0%
inhibition at 10 µg/mL [3]: 2%
inhibition at 50 µg/mL [4]: 0%
inhibition at 10 µg/mL [5]: 0%
inhibition at 50 µg/mL [6]: 11%
inhibition at 10 µg/mL [7]: 14%
inhibition at 50 µg/mL [8]: 22%
inhibition at 10 µg/mL [13]: 20%
inhibition at 50 µg/mL [14]: 31%
LD50 [15]: 1800 mg/kg
Activity [16]: 91%
Activity [17]: 83%

MIC [18]: 12.1 µM (≈ 3.91 µg/mL)
MIC [19]: 6 µM (≈ 1.94 µg/mL)
MIC [21]: 12.1 µM (≈ 3.91 µg/mL)
Structure (SMILES): O=C(N[C@H](CO)[C@H](O)c1ccc([N+](=O)[O-])cc1)C(Cl)Cl [CHLORAMPHENICOL]

Structure (SMILES): COc1ccccc1N1CCn2c1n[nH]c(=O)c2=O
viability at 24 h, 1 µM [9]: 103%
viability at 24 h, 50 µM [10]: 101%
Activity [11]: 94%
Activity [12]: 90%
cytotoxicity at 72 h, 10 ug/ml [1]: 26%
cytotoxicity at 72 h, 50 ug/ml [2]: 17%
inhibition at 10 µg/mL [3]: 30%
inhibition at 50 µg/mL [4]: 29%
inhibition at 10 µg/mL [5]: 5%
inhibition at 50 µg/mL [6]: 8%
inhibition at 10 µg/mL [7]: 1%
inhibition at 50 µg/mL [8]: 9%
inhibition at 10 µg/mL [13]: 0%
inhibition at 50 µg/mL [14]: 39%
LD50 [15]: 1100 mg/kg
Activity [16]: 90%
Activity [17]: 85%

MIC [18]: 35.8 µM (≈ 12.5 µg/mL)
MIC [19]: 71.5 µM (≈ 25 µg/mL)
MIC [21]: 35.8 µM (≈ 12.5 µg/mL)
Structure (SMILES): CC1(C)S[C@@H]2[C@H](NC(=O)[C@H](N)c3ccccc3)C(=O)N2[C@H]1C(=O)O [AMPICILLIN]
